Reference: PubChem BioAssay AID1919016 (Molecular Pharmacology Branch, DTP, NCI, 2023)

System: NCI-H196 complex spheroid growth, percent test/control
Experiment: Anticancer human tumor NCI-H196 cell line growth inhibition [AhR];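 also: seven days of drug exposure starting three days after plating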;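 as to viability, T/C: 100% = DMSO vehicle control wells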
Conditions: for IC50: curve of first compound; for viability, T/C: stronger effect = lower value
Summary of the method: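 Complex tumor spheroids co-cultured with HUVEC and human MSC stroma; AhR antagonists tested in combination with standard-of-care and investigational agents. Top concentration at or near clinical Cmax (else 10 microM), half-log dilutions; growth expressed as percent test/control.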

[1] = second compound 0.1 µM, first compound 0.0316 µM
[2] = second compound 0.1 µM, first compound 0.1 µM
[3] = second compound 0.1 µM, first compound 0.316 µM
[4] = second compound 0.1 µM, first compound 1 µM
[5] = second compound 0.1 µM, first compound 3.16 µM
[6] = second compound 0.1 µM, first compound 10 µM
[7] = second compound 0.316 µM, first compound 0.0316 µM
[8] = second compound 0.316 µM, first compound 0.1 µM
[9] = second compound 0.316 µM, first compound 0.316 µM
[10] = second compound 0.316 µM, first compound 1 µM
[11] = second compound 0.316 µM, first compound 3.16 µM
[12] = second compound 0.316 µM, first compound 10 µM
[13] = second compound 1 µM, first compound 0.0316 µM
[14] = second compound 1 µM, first compound 0.1 µM
[15] = second compound 1 µM, first compound 0.316 µM
[16] = second compound 1 µM, first compound 1 µM
[17] = second compound 1 µM, first compound 3.16 µM
[18] = second compound 1 µM, first compound 10 µM
[19] = second compound 3.16 µM, first compound 0.0316 µM
[20] = second compound 3.16 µM, first compound 0.1 µM
[21] = second compound 3.16 µM, first compound 0.316 µM
[22] = second compound 3.16 µM, first compound 1 µM
[23] = second compound 3.16 µM, first compound 3.16 µM
[24] = second compound 3.16 µM, first compound 10 µM
[25] = second compound 10 µM, first compound 0.0316 µM
[26] = second compound 10 µM, first compound 0.1 µM
[27] = second compound 10 µM, first compound 0.316 µM
[28] = second compound 10 µM, first compound 1 µM
[29] = second compound 10 µM, first compound 3.16 µM
[30] = second compound 10 µM, first compound 10 µM

SMILES | IC50 (second compound 0.1 µM) | IC50 (second compound 0.316 µM) | IC50 (second compound 1 µM) | IC50 (second compound 3.16 µM) | IC50 (second compound 10 µM) | viability, T/C [1] | viability, T/C [2] | viability, T/C [3] | viability, T/C [4] | viability, T/C [5] | viability, T/C [6] | viability, T/C [7] | viability, T/C [8] | viability, T/C [9] | viability, T/C [10] | viability, T/C [11] | viability, T/C [12] | viability, T/C [13] | viability, T/C [14] | viability, T/C [15] | other results
Nc1ccn(C2OC(CO)C(O)C2(F)F)c(=O)n1 (stereo not given) + Cc1ccccc1N=Nc1ccc(NC(=O)c2ccnn2C)c(C)c1 | > 10 µM | > 10 µM | > 10 µM | > 10 µM | > 10 µM | 88.8% | 85.5% | 53.4% | 52.1% | 57.6% | 59.6% | 91.4% | 88.2% | 58.7% | 54% | 54.5% | 60.1% | 88.7% | 90.4% | 62.5% | viability, T/C [16]: 53.2%; viability, T/C [17]: 56.1%; viability, T/C [18]: 60.2%; viability, T/C [19]: 93.3%; viability, T/C [20]: 91.3%; viability, T/C [21]: 62.7%; viability, T/C [22]: 57.1%; viability, T/C [23]: 55%; viability, T/C [24]: 55.9%; viability, T/C [25]: 85.2%; viability, T/C [26]: 90.8%; viability, T/C [27]: 75.9%; viability, T/C [28]: 61.9%; viability, T/C [29]: 60.1%; viability, T/C [30]: 64.3%
O=C(C=Cc1cccc(S(=O)(=O)Nc2ccccc2)c1)NO + Cc1ccccc1N=Nc1ccc(NC(=O)c2ccnn2C)c(C)c1 | 1.48 µM | 1.76 µM | 1.72 µM | 1.87 µM | 2.03 µM | 93% | 100% | 87.8% | 62% | 25.5% | 0.66% | 92.7% | 96.5% | 104% | 69.9% | 27.4% | 0.67% | 102% | 94.5% | 90.4% | viability, T/C [16]: 74.2%; viability, T/C [17]: 23.7%; viability, T/C [18]: 3.01%; viability, T/C [19]: 93.6%; viability, T/C [20]: 91.9%; viability, T/C [21]: 91.1%; viability, T/C [22]: 72%; viability, T/C [23]: 31.3%; viability, T/C [24]: 1.68%; viability, T/C [25]: 87.9%; viability, T/C [26]: 90.8%; viability, T/C [27]: 81.6%; viability, T/C [28]: 72.4%; viability, T/C [29]: 36.4%; viability, T/C [30]: 0.98%
O=C(c1cc(Cc2n[nH]c(=O)c3ccccc23)ccc1F)N1CCN(C(=O)C2CC2)CC1 + Cc1ccccc1N=Nc1ccc(NC(=O)c2ccnn2C)c(C)c1 | > 10 µM | > 10 µM | > 10 µM | > 10 µM | > 10 µM | 109% | 101% | 107% | 94.1% | 91.4% | 102% | 99.5% | 103% | 102% | 93.1% | 108% | 102% | 99.4% | 107% | 98.3% | viability, T/C [16]: 99.1%; viability, T/C [17]: 100%; viability, T/C [18]: 93.6%; viability, T/C [19]: 90.8%; viability, T/C [20]: 105%; viability, T/C [21]: 95.9%; viability, T/C [22]: 108%; viability, T/C [23]: 96.9%; viability, T/C [24]: 101%; viability, T/C [25]: 87.2%; viability, T/C [26]: 90.1%; viability, T/C [27]: 99.1%; viability, T/C [28]: 98.8%; viability, T/C [29]: 103%; viability, T/C [30]: 83.4%
